Experiments:
[1] = Dermal pharmacokinetics in mouse skin; format: in vivo; conditions: mice, model cream and ointment formulations, without detectable plasma exposure
Description: (§1) The objective of this assay was to determine the epidermal, dermal and plasma pharmacokinetics of a test compound following a 24 hr exposure to intact mouse or mini-pig skin.
(§2) Twenty-four hours prior to dosing the hair was shaved from the back of 25 g male Balb/c mice exposing an area at of least 6 cm^2 (about 10% of body surface) and, in a separate experiment, of 10 kg Gottingen mini-pigs exposing an area of at least 450 cm^2 (about 10% of body surface). At time zero, following isoflurane anesthesia, the test compound was applied to the back of mice or mini-pigs at a dose of 25 μL/cm^2. The skin was covered with an adhesive cover to prevent loss of compound to the cage or bedding.
(§3) Following 24 h exposure, the backs were gently washed with soap and water to remove non-absorbed drug and patted dry. Immediately following this washing, blood was drawn by cardiac puncture from the mice and via venipuncture from the mini-pigs. The outer skin (stratum corneum) was then removed by adhesive tape stripping. Upon exposure of the epidermis a 0.5 cm punch biopsy was taken. The epidermis and dermis were quickly separated, weighed and snap frozen. […]
(§4) Epidermis and dermis samples were homogenized in 1:10 (w/v) water using a Covaris ultrasonic homogenizer. Samples were extracted in 3 volumes of acetonitrile and quantified against a standard curve via LC-MS analysis.

[2] = Dermal pharmacokinetics in mini-pig skin; format: in vivo; conditions: model cream and ointment formulations, without detectable plasma exposure
Description: as §1, §2, §3, §4

EPHB6 = biological target: T1, EPHB6 (Homo sapiens, UniProt O15197); test: Kinome screen, EPHB6; format: binding; conditions: screened at 1 μM
T1 construct: made in house; host or cells: T7 phage in E. coli (BL21-derived) or HEK-293
Description: (§5) Kinase-tagged T7 phage strains were grown in parallel in 24-well blocks in an E. coli host derived from the BL21 strain. E. coli were grown to log-phase and infected with T7 phage from a frozen stock (multiplicity of infection=0.4) and incubated with shaking at 32° C. until lysis (90-150 minutes). The lysates were centrifuged (6,000×g) and filtered (0.2 μm) to remove cell debris. The remaining kinases were produced in HEK-293 cells and subsequently tagged with DNA for qPCR detection.
(§6) Streptavidin-coated magnetic beads were treated with biotinylated small molecule ligands for 30 minutes at room temperature to generate affinity resins for kinase assays. The liganded beads were blocked with excess biotin and washed with blocking buffer (SeaBlock (Pierce), 1% BSA, 0.05% Tween 20, 1 mM DTT) to remove unbound ligand and to reduce non-specific phage binding. […] Test compounds were prepared as 40× stocks in 100% DMSO and directly diluted into the assay. All reactions were performed in polypropylene 384-well plates in a final volume of 0.04 ml. […] The beads were then re-suspended in elution buffer (1×PBS, 0.05% Tween 20, 0.5 μM non-biotinylated affinity ligand) and incubated at room temperature with shaking for 30 minutes. The kinase concentration in the eluates was measured by qPCR.

GSK3B = biological target: T2, GSK3B (Homo sapiens, UniProt P49841); test: Kinome screen, GSK3B; format: binding; conditions: screened at 1 μM
T2 construct: made in house; host or cells: T7 phage in E. coli (BL21-derived) or HEK-293
Description: as §5, §6

[3] = test system: BEAS-2B human lung epithelial cells; test: CellTiter-Glo cell viability/cytotoxicity assay; format: cell-based; conditions: BEAS-2B cells, 48 h, concentration at 15% inhibition threshold
Description: A CellTiter-Glo luminescent cell viability/cytotoxicity assay was carried out in BEAS-2B human lung epithelial cells (ATCC) under the normal growth condition.
Cells were grown at 37° C. in a 5% CO2 humidified incubator in 50% DMEM/50% F-12 medium (Life Technologies) supplemented with 10% FBS (Hyclone), 100 U/mL penicillin, 100 μg/mL streptomycin (Life Technologies), and 2 mM GlutaMAX (Life Technologies). On day 1 of the assay, cells were seeded at a 500 cells/well density in white 384-well tissue culture plates (Corning) with 25 μL medium, and were allowed to adhere overnight in the incubator. On day 2 of the assay, 5 μL of medium containing dose-responses of test compounds was added, and incubated at 37° C. for 48 h. 30 μL of CellTiter-Glo detection solution (Promega) was subsequently added, mixed on an orbital shaker for 5 min, and incubated for additional 10 min before being read on the EnVision reader. Luminescence signals were recorded and percent DMSO control values were calculated.
For dose-response analysis, percent DMSO control data were plotted vs. compound concentrations to derive dose-response curves by line connecting each data point. The concentration at which each curve crosses the 15% inhibition threshold is defined as CC15.

T1 sequence (O15197 32-1021): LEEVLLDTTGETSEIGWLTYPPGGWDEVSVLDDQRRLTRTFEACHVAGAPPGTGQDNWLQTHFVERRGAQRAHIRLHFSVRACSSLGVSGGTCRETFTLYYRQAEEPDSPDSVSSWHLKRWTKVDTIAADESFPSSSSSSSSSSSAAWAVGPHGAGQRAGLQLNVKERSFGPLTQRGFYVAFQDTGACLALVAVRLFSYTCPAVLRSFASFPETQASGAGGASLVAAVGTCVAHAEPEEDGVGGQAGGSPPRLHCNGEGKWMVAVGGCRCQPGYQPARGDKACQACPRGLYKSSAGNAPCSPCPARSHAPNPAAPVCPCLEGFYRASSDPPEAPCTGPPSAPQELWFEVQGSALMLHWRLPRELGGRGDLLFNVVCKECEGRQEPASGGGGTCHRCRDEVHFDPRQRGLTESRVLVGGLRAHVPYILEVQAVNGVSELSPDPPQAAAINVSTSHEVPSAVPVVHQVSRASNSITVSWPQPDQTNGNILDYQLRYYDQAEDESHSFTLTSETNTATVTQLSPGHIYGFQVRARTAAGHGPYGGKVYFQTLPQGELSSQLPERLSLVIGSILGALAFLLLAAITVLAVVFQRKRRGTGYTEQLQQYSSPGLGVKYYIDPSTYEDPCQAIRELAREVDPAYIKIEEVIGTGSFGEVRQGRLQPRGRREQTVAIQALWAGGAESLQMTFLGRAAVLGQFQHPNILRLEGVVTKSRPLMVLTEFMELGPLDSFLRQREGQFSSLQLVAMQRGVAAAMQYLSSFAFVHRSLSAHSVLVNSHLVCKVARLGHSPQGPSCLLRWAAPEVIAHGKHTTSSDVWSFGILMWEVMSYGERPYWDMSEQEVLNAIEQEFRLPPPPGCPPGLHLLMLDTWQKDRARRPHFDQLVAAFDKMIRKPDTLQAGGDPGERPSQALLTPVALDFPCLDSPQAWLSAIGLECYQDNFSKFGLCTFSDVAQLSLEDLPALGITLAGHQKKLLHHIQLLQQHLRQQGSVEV
T2 sequence (P49841 whole entry): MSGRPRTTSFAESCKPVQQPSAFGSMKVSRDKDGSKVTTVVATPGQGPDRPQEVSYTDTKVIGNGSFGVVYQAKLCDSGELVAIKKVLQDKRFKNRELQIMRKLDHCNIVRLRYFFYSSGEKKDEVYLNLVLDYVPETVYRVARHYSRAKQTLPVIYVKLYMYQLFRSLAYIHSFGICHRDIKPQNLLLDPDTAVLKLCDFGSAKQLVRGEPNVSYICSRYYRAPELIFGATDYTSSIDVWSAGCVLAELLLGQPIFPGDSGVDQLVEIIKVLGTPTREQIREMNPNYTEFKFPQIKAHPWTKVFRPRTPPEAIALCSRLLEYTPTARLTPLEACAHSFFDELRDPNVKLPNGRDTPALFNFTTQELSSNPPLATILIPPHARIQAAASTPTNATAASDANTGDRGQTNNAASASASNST

Compound: CCc1cc(O)c(F)cc1-c1cc(F)c2c(-c3nc4c([nH]3)CCN(C(=O)CN3CCOCC3)C4)n[nH]c2c1 [Compound 1, 1-(2-(6-(2-ethyl-5-fluoro-4-hydroxyphenyl)-4-fluoro-1H-indazol-3-yl)-1,4,6,7-tetrahydro-5H-imidazo[4,5-c]pyridin-5-yl)-2-morpholinoethan-1-one]
- duration of sustained dermal levels [1]: at least 2 days
- duration of sustained dermal levels [2]: at least 7 days
- inhibition at 1 µM (EPHB6): 88%
- inhibition at 1 µM (GSK3B): 31%
- CC15 [3]: 3.16 µM

Reference: patent US10493077B2, “Fused imidazo-piperidine JAK inhibitor compound” (THERAVANCE BIOPHARMA R&D IP, LLC, priority 2017, dated 2019)
